For one assay, the system named is Sclerotinia sclerotiorum. Nature of the assay: Sclerotinia sclerotiorum (cottony rot, white mold), liquid culture growth inhibition. In kind it is cell-based. Conditions: PDB nutrient broth, 24° C., 72 hrs, 620 nm, vs untreated control. Here is the method:
Mycelial fragments of the fungus prepared from a fresh liquid culture were directly mixed into nutrient broth (PDB potato dextrose broth). A DMSO solution of the test compounds was placed into a microtiter plate (96-well format) and the nutrient broth containing the fungal spores was added to it. The test plates were incubated at 24° C. and the inhibition of growth was determined photometrically after 72 hrs at 620 nm.

The subject of assay [1] is Botryotinia fuckeliana syn. Botrytis cinerea. Kind of assay: Botryotinia fuckeliana syn. Botrytis cinerea (gray mould), liquid culture growth inhibition. The assay is classed as cell-based. Conditions: PDB nutrient broth, 24° C., 72 hrs, photometric, vs untreated control. As to the method: Conidia of the fungus from cryogenic storage were directly mixed into nutrient broth (PDB potato dextrose broth). A DMSO solution of the test compounds was placed into a microtiter plate (96-well format) and the nutrient broth containing the fungal spores was added to it. The test plates were incubated at 24° C. and the inhibition of growth was determined photometrically after 72 hrs.

The subject of the next assay is Pyrenophora teres. Kind of assay: Pyrenophora teres (net blotch of barley), barley leaf segments, preventive. The assay is classed as in vivo. Particulars: foliar, 96 h, assessed 4 dpi, vs untreated control. As to the method: Barley leaf segments are placed on agar in multiwell plates (24-well format) and sprayed with test solutions. After drying, the leaf disks are inoculated with a spore suspension of the fungus. After appropriate incubation, the activity of a compound is assessed 4 dpi (days after inoculation) as preventive fungicidal activity.

For a further assay, the system named is Alternaria solani. Kind of assay: Alternaria solani (early blight of tomato), tomato leaf disks, preventive. The assay is classed as in vivo. Particulars: foliar, 96 h, assessed 4 dpi, vs untreated control. As to the method: Tomato leaf disks are placed on water agar in multiwell plates (24-well format) and sprayed with test solutions. After drying, the leaf disks are inoculated with a spore suspension of the fungus. After appropriate incubation the activity of a compound is assessed 4 dpi (days post inoculation) as preventive fungicidal activity.

In assay [2] the test system is Botryotinia fuckeliana syn. Botrytis cinerea. Nature of the assay: Botryotinia fuckeliana syn. Botrytis cinerea (grey mold on tomato), tomato plants. In kind it is in vivo. Particulars: tomato plants cv. Roter Gnom, inoculated two days after application, leaf area covered by disease 5-6 days after application. As to the method: 4-week old tomato plants cv. Roter Gnom are treated sprayed in a spray chamber with the formulated test compound diluted in water. The test plants are inoculated by spraying them with a spore suspension two days after application. The inoculated test plants are incubated at 20° C. and 95% rh in a greenhouse and the percentage leaf area covered by disease is assessed when an appropriate level of disease appears on untreated check plants (5-6 days after application).

In assay [3] the test system is Monographella nivalis syn. Microdochium nivale, Fusarium nivale. Kind of assay: Monographella nivalis syn. Microdochium nivale (snow mould, foot rot), liquid culture growth inhibition. In kind it is cell-based. Conditions: PDB nutrient broth, 24° C., 72 hrs, 620 nm, vs untreated control. Here is the method: (§1) Conidia of the fungus from cryogenic storage were directly mixed into nutrient broth (PDB potato dextrose broth). A DMSO solution of the test compounds was placed into a microtiter plate (96-well format) and the nutrient broth containing the fungal spores was added to it. The test plates were incubated at 24° C. and the inhibition of growth was determined photometrically after 72 hrs at 620 nm.

Assay [4] concerns Glomerella lagenarium syn Colletotrichum lagenarium. Nature of the assay: Glomerella lagenarium syn. Colletotrichum lagenarium (anthracnose), liquid culture growth inhibition. The assay is classed as cell-based. Particulars: Colletotrichum orbiculare, PDB nutrient broth, 24° C., 72 hrs, 620 nm, vs untreated control. As to the method:
as §1

The test system of assay [5] is Phaeosphaeria nodorum syn. Septoria nodorum. Kind of assay: Phaeosphaeria nodorum syn. Septoria nodorum (glume blotch of wheat), wheat leaf segments, preventive. The assay is classed as in vivo. Conditions: Parastagonospora nodorum, foliar, 96 h, assessed 4 dpi, vs untreated control. As to the method:
Wheat leaf segments are placed on agar in multiwell plates (24-well format) and sprayed with test solutions. After drying, the leaf disks are inoculated with a spore suspension of the fungus. After appropriate incubation the activity of a compound is assessed 4 dpi (days after inoculation) as preventive fungicidal activity.
The following compounds from Table T1 gave at least 80% control of Phaeosphaeria nodorum at 200 ppm when compared to untreated control under the same conditions, which sowed extensive disease development: • 1.1, 1.3, 1.7, 1.14, 1.39, 1.41, 1.86, 1.87, 1.92, 1.94, 1.95.

Each structure is given as a SMILES string.

Usually inhibition of growth stands for the change of the read-out against control, counted positive when it falls. The low end stands for a weak effect, the high end for a strong effect. The pest or weed control is the degree to which the test organism was suppressed or injured, in per cent. Read a high pest or weed control as a strong effect.

On to `Cc1cccc(Oc2cnc(C)cc2C(=O)NCC(F)c2ccc(Cl)cc2Cl)c1` (stereo not shown) [Compound 1.1, N-[2-(2,4-dichlorophenyl)-2-fluoro-ethyl]-2-methyl-5-(3-methylphenoxy)pyridine-4-carboxamide], for which the inhibition of growth at 20 ppm (with Sclerotinia sclerotiorum; in assay [1]; in assay [3]; in assay [4]) was at least 80% throughout. The pest or weed control at 200 ppm is at least 80% in the assay with Pyrenophora teres, at least 80% with Alternaria solani, at least 50% in assay [2] and at least 80% in assay [5].
For `Cc1cccc(Oc2cnc(Cl)cc2C(=O)NCC(F)c2ccc(Cl)cc2Cl)c1` (stereo not shown) [Compound 1.3, 2-chloro-N-[2-(2,4-dichlorophenyl)-2-fluoro-ethyl]-5-(3-methylphenoxy) pyridine-4-carboxamide], the inhibition of growth at 20 ppm (in the assay on Sclerotinia sclerotiorum; in assay [1]; in assay [4]) was at least 80% each time. The pest or weed control at 200 ppm with Pyrenophora teres is at least 80%; in assay [2] it was at least 50%; in assay [5], at least 80%.
Regarding `Cc1cncc(Oc2cccc(C3CC3)c2)c1C(=O)NCC(F)c1ccc(Cl)cc1Cl` (stereo not shown) [Compound 1.7, 3-(3-cyclopropyl-phenoxy)-N-[2-(2,4-dichlorophenyl)-2-fluoro-ethyl]-5-methyl-pyridine-4-carboxamide], the inhibition of growth at 20 ppm (in the assay with Sclerotinia sclerotiorum; in assay [1]; in assay [4]) was at least 80% in each case. In addition, the pest or weed control at 200 ppm in the assay on Alternaria solani was at least 80%; in assay [2], at least 50%; in assay [5] it was at least 80%.
Consider `Cc1cc(C(=O)NCC(F)c2ccc(Cl)cc2Cl)c(Oc2cccc(C3CC3)c2)cn1` (stereo not shown) [Compound 1.14, 5-(3-cyclopropyl-phenoxy)-N-[2-(2,4-dichlorophenyl)-2-fluoro-ethyl]-2-methyl-pyridine-4-carboxamide], for which the inhibition of growth at 20 ppm (in the assay on Sclerotinia sclerotiorum; in assay [1]; in assay [3]; in assay [4]) was at least 80% in each case. The pest or weed control at 200 ppm is at least 80% with Pyrenophora teres, at least 80% in the assay on Alternaria solani, at least 50% in assay [2] and at least 80% in assay [5].
Turning to `N#Cc1cc(C(=O)NCC(F)c2ccc(Cl)cc2Cl)c(Oc2cccc(C3CC3)c2)cn1` (stereo not shown) [Compound 1.20, 2-cyano-5-(3-cyclopropyl-phenoxy)-N-[2-(2,4-dichlorophenyl) 2-fluoro-ethyl]pyridine-4-carboxamide], the inhibition of growth at 20 ppm (with Sclerotinia sclerotiorum; in assay [1]; in assay [4]) was at least 80% throughout. The pest or weed control at 200 ppm is at least 80% in the assay on Alternaria solani and at least 50% in assay [2].
Take `Cc1ccc(C(F)CNC(=O)c2cc(C)ncc2Oc2cccc(C3CC3)c2)c(C)c1` (stereo not shown) [Compound 1.39, 5-(3-cyclopropyl-phenoxy)-N-[2-(2,4-dimethylphenyl)-2-fluoro-ethyl]-2-methyl-pyridine-4-carboxamide]: the inhibition of growth at 20 ppm (with Sclerotinia sclerotiorum; in assay [1]; in assay [3]; in assay [4]) was at least 80% each time. Moreover, the pest or weed control at 200 ppm is at least 80% in the assay on Pyrenophora teres, at least 80% in the assay with Alternaria solani, at least 50% in assay [2] and at least 80% in assay [5].
Consider `Cc1cc(C(=O)NC[C@@H](F)c2ccc(Cl)cc2Cl)c(Oc2cccc(C3CC3)c2)cn1` [Compound 1.41, 5-(3-cyclopropyl-phenoxy)-N-[(2S)-2-(2,4-dichlorophenyl)-2-fluoro-ethyl]-2-methyl-pyridine-4-carboxamide], for which the inhibition of growth at 20 ppm (with Sclerotinia sclerotiorum; in assay [1]; in assay [3]; in assay [4]) was at least 80% each time. The pest or weed control at 200 ppm with Pyrenophora teres was at least 80%; in the assay with Alternaria solani, at least 80%; in assay [2] it was at least 50%; in assay [5] it was at least 80%.
In the case of `C=C(C)COc1cncc(Oc2cccc(C3CC3)c2)c1C(=O)NCC(F)c1ccc(Cl)cc1Cl` (stereo not shown) [Compound 1.85, 3-(3-cyclopropyl-phenoxy)-N-[2-(2,4-dichlorophenyl)-2-fluoro-ethyl]-5-(2-methylallyloxy) pyridine-4-carboxamide], the inhibition of growth at 20 ppm (in the assay on Sclerotinia sclerotiorum; in assay [1]; in assay [3]; in assay [4]) was at least 80% each time. Further, the pest or weed control at 200 ppm with Pyrenophora teres was at least 80%; in assay [2], at least 50%.
Regarding `C#Cc1cncc(Oc2cccc(C3CC3)c2)c1C(=O)NCC(F)c1ccc(Cl)cc1Cl` (stereo not shown) [Compound 1.87, 3-(3-cyclopropyl-phenoxy)-N-[2-(2,4-dichlorophenyl)-2-fluoro-ethyl]-5-ethynyl-pyridine-4-carboxamide], the inhibition of growth at 20 ppm (in the assay on Sclerotinia sclerotiorum; in assay [1]; in assay [3]; in assay [4]) was at least 80% each time. Besides, the pest or weed control at 200 ppm in the assay on Pyrenophora teres was at least 80%; in the assay on Alternaria solani, at least 80%; in assay [2] it was at least 50%; in assay [5], at least 80%.
For `C#CC(C)(C)Oc1cncc(Oc2cccc(C3CC3)c2)c1C(=O)NCCc1ccc(Cl)cc1Cl` [Compound 1.88, 3-(3-cyclopropyl-phenoxy)-N-[2-(2,4-dichlorophenyl)ethyl]-5-(1,1-dimethylprop-2-ynoxy)pyridine-4-carboxamide], the inhibition of growth at 20 ppm (in the assay with Sclerotinia sclerotiorum; in assay [1]; in assay [3]; in assay [4]) was at least 80% throughout. Further, the pest or weed control at 200 ppm was at least 80% in the assay on Pyrenophora teres and at least 50% in assay [2].
Consider `Cc1cncc(Oc2cccc(C3CC3)c2)c1C(=O)NC[C@H](F)c1ccc(Cl)cc1Cl` [Compound 1.94, 3-(3-cyclopropyl-phenoxy)-N-[(2R)-2-(2,4-dichlorophenyl)-2-fluoro-ethyl]-5-methyl-pyridine-4-carboxamide], for which the inhibition of growth at 20 ppm (in the assay on Sclerotinia sclerotiorum; in assay [1]; in assay [3]; in assay [4]) was at least 80% in each case. The pest or weed control at 200 ppm (in the assay with Pyrenophora teres; in the assay on Alternaria solani; in assay [5]) was at least 80% each time.
As to `O=C(NC[C@H](F)c1ccc(Cl)cc1Cl)c1c(Br)cncc1Oc1cccc(C2CC2)c1` [Compound 1.95, 3-bromo-5-(3-cyclopropyl-phenoxy)-N-[(2R)-2-(2,4-dichlorophenyl)-2-fluoro-ethyl]pyridine-4-carboxamide], the inhibition of growth at 20 ppm (in the assay with Sclerotinia sclerotiorum; in assay [1]; in assay [3]; in assay [4]) was at least 80% in each case. Further, the pest or weed control at 200 ppm (in the assay on Alternaria solani; in assay [5]) was at least 80% throughout.

The record behind these values is patent publication US20240182420A1, “MICROBIOCIDAL ISONICOTINIC AMIDE DERIVATIVES” (SYNGENTA CROP PROTECTION AG, priority 2021, published 2024).
